Measured values reported in article PMC12316308, “Interactions of substrates and phosphinyl containing inhibitors with bacterial and human zinc proteases” (PLOS One, 2025).
“And” between values parts separate entries of the source, which are not always exact repeats. Identical values can stand only once. Like-named read-outs stand apart in the source and are kept apart here.

Columns and labels:
Format in all cases: biochemical
thermolysin (TLN) = biological target: T1, thermolysin (TLN) (Bacillus thermoproteolyticus, UniProt P00800); assay: Enzyme inhibition kinetics, fluorogenic substrate ES005; conditions: for vi/v0 avg (time dependent inhibition, Supplementary Figure S8): Thermolysin, inhibitor 100 µM
T1 construct: purchased Calbiochem (San Diego, CA, USA)
Procedure: (§1) Determination of reaction velocities. The substrate ES001 was used for APMA activated MMP-9 (MMP-9(A)), Mag-Trypsin activated MMP-9 (MMP-9(MT)) and MMP-14, while the substrate ES005 was used for ALN, PLN and TLN. The reaction velocities/initial rates (v) were determined at 37°C, at an excitation wavelength of 320 nm and an emission wavelength of 405 nm with a slit width of 10 nm using either a Perkin Elmer LS 50 Luminescence spectrometer and the FL WinLab Software Package (Perkin Elmer) or a Clario Star micro plate reader (CLARIOstar® BMG LABTECH).
(§2) The phosphinic compounds were dissolved in 100% DMSO to a final concentration of 10 mM. In all assays, a fixed substrate concentration of 4.0 µM was used in a total volume of 100 µL 0.1 M Hepes pH 7.5, 10 mM CaCl2, 0.005% Brij-35 and 1.0% DMSO. Fixed enzyme concentrations were as follows; 0.05 nM MMP-9(A), 0.05 nM MMP-9(MT), 1.0 nM MMP-14, 1.4 nM ALN, 0.5 nM PLN and 0.21 nM TLN. Time dependent inhibitory experiments, with and without 100 μM of phosphinic compounds, were performed as follows: Compounds were either pre-incubated with proteases for 15 and 30 minutes at room temperature before initiating the enzymatic reaction by adding the substrate, or not pre-incubated, meaning the reaction was initiated by adding the protease to the mixture of substrate and compound. Control tests without the compound present were performed under the same conditions. Reactions were monitored for 30 minutes at 37°C.
(§3) Determination of IC50 and Ki values. […] A fixed substrate concentration and the same enzyme and buffer conditions as described above were used. Enzymes, with or without inhibitors, were either pre-incubated for 30 minutes at room temperature or not pre-incubated, and initial rate assays were performed as described above. Assays were performed using a Clario Star microplate reader. The IC50 values with corresponding s.d. were calculated with GraphPad Prism 5 using equation 1 or 2, depending on the concentration range of the phosphinic compounds.
(§4) Equation 3 describe the relationship between IC50 and Ki values for substrate competitive inhibitors, considering the fixed substrate concentration and the enzyme’s Km value for the substrate: […]

aureolysin (ALN) = biological target: T2, aureolysin (ALN) (Staphylococcus aureus, UniProt P81177); assay: as above; conditions: for remaining activity at 100 µM: 100 µM inhibitor
T2 construct: purchased BioCentrum Ltd (Kraków, Poland)
Procedure: as §1, §2, §3, §4

pseudolysin (PLN, LasB) = biological target: T3, pseudolysin (PLN, LasB) (Pseudomonas aeruginosa, UniProt P14756); assay: as above; conditions: for remaining activity at 100 µM: 100 µM inhibitor
T3 construct: purchased Calbiochem (San Diego, CA, USA)
Procedure: as §1, §2, §3, §4

[1] = biological target: T4, Mag-Trypsin activated MMP-9 (MMP-9(MT)) (Homo sapiens, UniProt P14780); assay: Enzyme inhibition kinetics, fluorogenic substrate ES001; conditions: rMMP-9 (Mag-trypsin activated); for remaining activity at 100 µM: 100 µM inhibitor
T4 construct: made in house; host or cells: Sf9 and High Five insect cells
Procedure: (§5) The expression of recombinant full length proMMP-9 (rpMMP-9) in Sf9 and High Five insect cells and the purification were performed as previously described. The amount of proMMP-9 was estimated spectrophotometrically at 280 nm using ε280nm = […] [46] for the full length enzyme. Activation of the recombinant proMMP-9 was performed with APMA (auto-activation) and Mag-Trypsin as previously described, while the amount of active MMP-9 was determined by active site titration using galardin, also described previously.
as §1, §2, §3, §4

[2] = biological target: T5, APMA activated MMP-9 (MMP-9(A)) (Homo sapiens, UniProt P14780); assay: as above; conditions: rMMP-9 (APMA activated); for remaining activity at 100 µM: 100 µM inhibitor
T5 construct: made in house; host or cells: Sf9 and High Five insect cells
Procedure: as §5, §1, §2, §3, §4

[3] = biological target: T6, human MT1-MMP/MMP-14 (catalytic domain) (Homo sapiens, UniProt P50281); assay: as above; conditions: MMP-14; for remaining activity at 100 µM: 100 µM inhibitor
T6 construct: human MT1-MMP/MMP-14 (catalytic domain); purchased Calbiochem (San Diego, CA, USA)
Procedure: as §1, §2, §3, §4

[4] = 0.25 h, 15 min pre incubation, read-out: vi/v0 (single replicate)
[5] = 0.25 h, 15 min pre incubation, read-out: vi/v0 avg
[6] = 0.5 h, 30 min pre incubation, read-out: vi/v0 (single replicate)
[7] = 0.5 h, 30 min pre incubation, read-out: vi/v0 avg
[8] = no preincubation, read-out: vi/v0 (single replicate)
[9] = no preincubation, read-out: vi/v0 avg
[10] = inhibitor 100 μM, average over 0, 15, 30 min preincubation
[11] = inhibitor 100 μM, preincubation 0 min
[12] = inhibitor 100 μM, preincubation 15 min
[13] = inhibitor 100 μM, preincubation 30 min

T4 sequence (P14780 107-707 limits assumed): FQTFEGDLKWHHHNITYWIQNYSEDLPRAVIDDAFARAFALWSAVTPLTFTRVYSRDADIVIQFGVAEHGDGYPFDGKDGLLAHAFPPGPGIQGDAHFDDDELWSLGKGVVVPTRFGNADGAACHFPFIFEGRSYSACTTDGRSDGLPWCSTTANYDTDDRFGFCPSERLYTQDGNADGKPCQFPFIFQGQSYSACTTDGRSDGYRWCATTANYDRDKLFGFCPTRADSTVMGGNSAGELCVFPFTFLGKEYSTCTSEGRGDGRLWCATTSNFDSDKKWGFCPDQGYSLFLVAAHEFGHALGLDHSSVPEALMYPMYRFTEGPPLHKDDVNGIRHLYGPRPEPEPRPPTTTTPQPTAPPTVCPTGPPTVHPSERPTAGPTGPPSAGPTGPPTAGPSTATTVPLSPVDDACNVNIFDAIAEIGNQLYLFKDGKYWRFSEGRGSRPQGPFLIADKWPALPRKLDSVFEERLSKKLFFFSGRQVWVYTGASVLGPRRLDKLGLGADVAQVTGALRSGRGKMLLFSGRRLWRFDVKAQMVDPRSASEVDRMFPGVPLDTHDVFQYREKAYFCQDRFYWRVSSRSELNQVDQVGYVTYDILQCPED
T5 sequence (P14780 107-707 limits assumed): as above
T3 sequence (P14756 198-498): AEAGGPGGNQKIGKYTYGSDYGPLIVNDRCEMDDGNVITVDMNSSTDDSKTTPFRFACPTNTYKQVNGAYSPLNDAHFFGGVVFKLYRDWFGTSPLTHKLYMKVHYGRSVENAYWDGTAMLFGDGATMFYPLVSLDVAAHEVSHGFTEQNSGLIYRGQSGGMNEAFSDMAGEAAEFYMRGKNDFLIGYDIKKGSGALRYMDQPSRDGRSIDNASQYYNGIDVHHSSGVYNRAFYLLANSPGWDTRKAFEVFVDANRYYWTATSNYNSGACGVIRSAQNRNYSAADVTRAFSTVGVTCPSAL
T2 sequence (P81177 209-509): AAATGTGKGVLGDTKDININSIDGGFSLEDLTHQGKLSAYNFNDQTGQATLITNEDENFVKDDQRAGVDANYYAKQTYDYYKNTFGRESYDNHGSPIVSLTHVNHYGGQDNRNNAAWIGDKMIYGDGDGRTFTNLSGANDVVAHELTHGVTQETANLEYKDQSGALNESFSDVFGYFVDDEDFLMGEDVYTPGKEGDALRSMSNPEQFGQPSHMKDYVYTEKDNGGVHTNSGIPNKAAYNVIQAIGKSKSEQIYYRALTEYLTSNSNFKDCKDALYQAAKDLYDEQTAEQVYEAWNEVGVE
T1 sequence (P00800 233-548): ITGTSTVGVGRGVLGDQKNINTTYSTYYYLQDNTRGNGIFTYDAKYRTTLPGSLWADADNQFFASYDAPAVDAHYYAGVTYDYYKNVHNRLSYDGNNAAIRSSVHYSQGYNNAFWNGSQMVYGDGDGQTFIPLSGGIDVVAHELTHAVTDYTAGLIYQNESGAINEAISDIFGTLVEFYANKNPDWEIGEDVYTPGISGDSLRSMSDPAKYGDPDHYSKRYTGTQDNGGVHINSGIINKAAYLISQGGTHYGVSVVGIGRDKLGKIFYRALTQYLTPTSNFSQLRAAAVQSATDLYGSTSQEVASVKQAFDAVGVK

SMILES: CCOC(=O)C(CO)CP(=O)(O)C(Cc1ccccc1)NC(=O)OCc1ccccc1 (stereo not drawn) [H5]
- vi/v0 Av (bar diagram figure 7) (thermolysin (TLN); Thermolysin (TLN), inhibitor 100 μM, average over 0, 15, 30 min preincubation): 1.046
- vi/v0 (relative enzyme activity with inhibitor), single determinations (thermolysin (TLN); Thermolysin (TLN), inhibitor 100 μM, preincubation 0 min): 1.137 and 1.068 and 1.02 and 1.001
- vi/v0 (relative enzyme activity with inhibitor), single determinations (thermolysin (TLN); Thermolysin (TLN), inhibitor 100 μM, preincubation 15 min): 1.051 and 0.8192 and 1.086 and 1.159
- vi/v0 (relative enzyme activity with inhibitor), single determinations (thermolysin (TLN); Thermolysin (TLN), inhibitor 100 μM, preincubation 30 min): 1.144 and 1.0013 and 1.003 and 1.066
- vi/v0 avg (time dependent inhibition, Supplementary Figure S8) (thermolysin (TLN); 15 min pre incubation): 1.029
- vi/v0 avg (time dependent inhibition, Supplementary Figure S8) (thermolysin (TLN); 30 min pre incubation): 1.054
- vi/v0 avg (time dependent inhibition, Supplementary Figure S8) (thermolysin (TLN); No preincubation): 1.056
- remaining activity at 100 µM (aureolysin (ALN); 0.25 h, read-out: vi/v0 (single replicate), Aureolysin, 15 min pre incubation): 84.1%
- remaining activity at 100 µM (aureolysin (ALN); 0.25 h, read-out: vi/v0 avg, Aureolysin, 15 min pre incubation): 89.9%
- remaining activity at 100 µM (aureolysin (ALN); 0.5 h, read-out: vi/v0 (single replicate), Aureolysin, 30 min pre incubation): 89.6%
- remaining activity at 100 µM (aureolysin (ALN); 0.5 h, read-out: vi/v0 avg, Aureolysin, 30 min pre incubation): 87.3%
- vi/v0 Av (bar diagram figure 7) (aureolysin (ALN); Aureolysin (ALN), inhibitor 100 μM, average over 0, 15, 30 min preincubation): 0.8959
- vi/v0 (relative enzyme activity with inhibitor), single determinations (aureolysin (ALN); Aureolysin (ALN), inhibitor 100 μM, preincubation 0 min): 0.8465 and 0.9473 and 0.9691 and 0.8995
- vi/v0 (relative enzyme activity with inhibitor), single determinations (aureolysin (ALN); Aureolysin (ALN), inhibitor 100 μM, preincubation 15 min): 0.8412 and 0.9365 and 0.9386 and 0.8803
- vi/v0 (relative enzyme activity with inhibitor), single determinations (aureolysin (ALN); Aureolysin (ALN), inhibitor 100 μM, preincubation 30 min): 0.8961 and 0.824 and 0.8612 and 0.9107
- remaining activity at 100 µM (aureolysin (ALN); read-out: vi/v0 (single replicate), Aureolysin, no preincubation): 84.6%
- remaining activity at 100 µM (aureolysin (ALN); read-out: vi/v0 avg, Aureolysin, no preincubation): 91.6%
- remaining activity at 100 µM (pseudolysin (PLN, LasB); 0.25 h, read-out: vi/v0 (single replicate), Pseudolysin, 15 min pre incubation): 83.9%
- remaining activity at 100 µM (pseudolysin (PLN, LasB); 0.25 h, read-out: vi/v0 avg, Pseudolysin, 15 min pre incubation): 86.2%
- remaining activity at 100 µM (pseudolysin (PLN, LasB); 0.5 h, read-out: vi/v0 (single replicate), Pseudolysin, 30 min pre incubation): 86.3%
- remaining activity at 100 µM (pseudolysin (PLN, LasB); 0.5 h, read-out: vi/v0 avg, Pseudolysin, 30 min pre incubation): 75.4%
- vi/v0 Av (bar diagram figure 7) (pseudolysin (PLN, LasB); Pseudolysin (PLN), inhibitor 100 μM, average over 0, 15, 30 min preincubation): 0.86
- vi/v0 (relative enzyme activity with inhibitor), single determinations (pseudolysin (PLN, LasB); Pseudolysin (PLN), inhibitor 100 μM, preincubation 0 min): 1.071 and 0.9333 and 0.8899
- vi/v0 (relative enzyme activity with inhibitor), single determinations (pseudolysin (PLN, LasB); Pseudolysin (PLN), inhibitor 100 μM, preincubation 15 min): 0.8394 and 0.8848
- vi/v0 (relative enzyme activity with inhibitor), single determinations (pseudolysin (PLN, LasB); Pseudolysin (PLN), inhibitor 100 μM, preincubation 30 min): 0.863 and 0.6659 and 0.7323
- remaining activity at 100 µM (pseudolysin (PLN, LasB); read-out: vi/v0 (single replicate), Pseudolysin, no preincubation): 107%
- remaining activity at 100 µM (pseudolysin (PLN, LasB); read-out: vi/v0 avg, Pseudolysin, no preincubation): 96.5%
- remaining activity at 100 µM [1, 4]: 87.3%
- remaining activity at 100 µM [1, 5]: 84.8%
- remaining activity at 100 µM [1, 6]: 86.9%
- remaining activity at 100 µM [1, 7]: 88.1%
- remaining activity at 100 µM [1, 8]: 88.4%
- remaining activity at 100 µM [1, 9]: 88.5%
- vi/v0 Av (bar diagram figure 7) [1, 10]: 0.8694
- vi/v0 (relative enzyme activity with inhibitor), single determinations [1, 11]: 0.8838 and 0.8693 and 0.8452 and 0.9405
- vi/v0 (relative enzyme activity with inhibitor), single determinations [1, 12]: 0.8726 and 0.9039 and 0.8256 and 0.7918
- vi/v0 (relative enzyme activity with inhibitor), single determinations [1, 13]: 0.8689 and 0.8925
- remaining activity at 100 µM [2, 5]: 102%
- remaining activity at 100 µM [2, 6]: 77.7%
- remaining activity at 100 µM [2, 7]: 83.7%
- remaining activity at 100 µM [2, 9]: 100%
- vi/v0 Av (bar diagram figure 7) [2, 10]: 0.9644
- vi/v0 (relative enzyme activity with inhibitor), single determinations [2, 11]: 1.202 and 0.9509 and 1.0525 and 0.8
- vi/v0 (relative enzyme activity with inhibitor), single determinations [2, 12]: 1.106 and 1.228 and 0.879 and 0.8791
- vi/v0 (relative enzyme activity with inhibitor), single determinations [2, 13]: 0.7771 and 0.9097 and 0.824
- remaining activity at 100 µM [3, 4]: 87.2%
- remaining activity at 100 µM [3, 5]: 88.7%
- remaining activity at 100 µM [3, 7]: 96.8%
- remaining activity at 100 µM [3, 8]: 96.3%
- remaining activity at 100 µM [3, 9]: 98.5%
- vi/v0 Av (bar diagram figure 7) ([3]; inhibitor 100 μM, average over preincubation times): 0.9417
- vi/v0 (relative enzyme activity with inhibitor), single determinations [3, 11]: 0.9629 and 1.0076
- vi/v0 (relative enzyme activity with inhibitor), single determinations [3, 12]: 0.8725 and 0.8868 and 0.9012
- vi/v0 (relative enzyme activity with inhibitor), single determinations [3, 13]: 1.138 and 0.953 and 0.8121
